The experiment addresses Recombinant human LSD1 (Homo sapiens, UniProt O60341). The experiment can be described thus: LSD1 inhibition assay (HTRF LSD1 Histone H3K4 mono-demethylation assay, me1->me0). In kind it is biochemical. As to conditions: 20 nM recombinant human LSD1, 95 nM H3K4(me1) biotinylated peptide, 15 min preincubation, 60 min at 25° C., read-out: LSD1 inhibition IC50 (nM range). In outline: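 Recombinant human LSD1 (20 nM) pre-incubated 15 min with 10 semi-log compound doses, then 95 nM biotinylated H3K4me1 peptide for 60 min at 25 °C in pH 8.5 Tris/NaCl buffer with 10 μM FAD, 1 mM DTT. HTRF me0-antibody read after 90 min; IC50 from 4-parameter fit.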

For 14 molecules, IC50 results are on record in US20260209214A1, “LSD1 MODULATORS” (RECURSION PHARMACEUTICALS, INC., priority 2022, published 2026).

By IC50 is commonly meant the concentration at which inhibition is half-maximal.

On to `CC(c1ccc(N2CCC2)c(-c2ccc(C#N)c(F)c2)c1)C1CNCCO1` (centres unmarked) [Example 76, 2′-(azetidin-1-yl)-3-fluoro-5′-[1-(morpholin-2-yl)ethyl]-[1,1′-biphenyl]-4-carbonitrile], for which the IC50 lay within 100 to 1000 nM.

For the molecule `COc1cn(-c2ccc(CC3CNCCO3)cc2-c2ccc(C#N)c(F)c2)nc1C` (centres unmarked) [Example 77, 3-fluoro-2′-(4-methoxy-3-methyl-1H-pyrazol-1-yl)-5′-[(morpholin-2-yl)methyl]-[1,1′-biphenyl]-4-carbonitrile], the concentration for half-maximal inhibition (IC50) was in the range of 100 to 1000 nM. As for `N#Cc1ccc(-c2cc(CC3CNCCO3)ccc2N2CCC3(CCCO3)CC2)cc1F` (centres unmarked) [Example 78, 3-fluoro-5′-[(morpholin-2-yl)methyl]-2′-{1-oxa-8-azaspiro[4.5]decan-8-yl}-[1,1′-biphenyl]-4-carbonitrile], the IC50 lay in the range of 100 to 1000 nM. Then `CC(C)C1(O)CCN(c2ccc(CC3CNCCO3)cc2-c2ccc(C#N)c(F)c2)CC1` (centres unmarked) [Example 79, 3-fluoro-2′-[4-hydroxy-4-(propan-2-yl)piperidin-1-yl]-5′-[(morpholin-2-yl)methyl]-[1,1′-biphenyl]-4-carbonitrile], with 10 to 25 nM. `COc1ccc(-c2ccc(CC3CNCCO3)cc2-c2ccc(C#N)c(F)c2)cn1` (centres unmarked) [Example 80, 3-fluoro-2′-(6-methoxypyridin-3-yl)-5′-[(morpholin-2-yl)methyl]-[1,1′-biphenyl]-4-carbonitrile]: the half-inhibitory concentration (IC50) was 100 to 1000 nM. The same measure for `CNC1CCN(c2cccc(-c3ccc(C#N)c(F)c3)c2-c2ccns2)CC1` [Example 81, 3-fluoro-3'-[4-(methylamino)piperidin-1-yl]-2'-(1,2-thiazol-5-yl)-[1,1'-biphenyl]-4-carbonitrile]: 10 to 25 nM. In the case of `N#Cc1ccc(-c2cccc(CC3CNCCCO3)c2C2CC2)cc1F` (centres unmarked) [Example 82, 2′-cyclopropyl-3-fluoro-3′-[(1,4-oxazepan-2-yl)methyl]-[1,1′-biphenyl]-4-carbonitrile], the half-inhibitory concentration (IC50) was in the range of 25 to 100 nM.

As for `COCCc1ccc(-c2ccc(CC3CNCCO3)cc2-c2ccc(C#N)c(F)c2)c(F)c1` (centres unmarked) [Example 83, 3-fluoro-2′-[2-fluoro-4-(2-methoxyethyl)phenyl]-5′-[(morpholin-2-yl)methyl]-[1,1′-biphenyl]-4-carbonitrile], the IC50 fell in the range of 25 to 100 nM.

Consider `N#Cc1ccc(-c2cccc(CC3CNCCO3)c2C#N)cc1F` (centres unmarked) [Example 84, 3′-fluoro-3-[(morpholin-2-yl)methyl]-[1,1′-biphenyl]-2,4′-dicarbonitrile], for which the half-inhibitory concentration (IC50) was > 1000 nM.

As for `COc1ccc(-c2c(C)cc(CC3CNCCO3)cc2-c2ccc(C#N)c(F)c2)cn1` (centres unmarked) [Example 85, 3-fluoro-2′-(6-methoxypyridin-3-yl)-3′-methyl-5′-[(morpholin-2-yl)methyl]-[1,1′-biphenyl]-4-carbonitrile], the 50% inhibitory concentration (IC50) is 100 to 1000 nM.

As to `COc1ccc(C2CN(c3ccc(CC4CNCCO4)cc3-c3ccc(C#N)c(F)c3)C2)cn1` (centres unmarked) [Example 86, 3-fluoro-2′-[3-(6-methoxypyridin-3-yl)azetidin-1-yl]-5′-[(morpholin-2-yl)methyl]-[1,1′-biphenyl]-4-carbonitrile], the IC50 lay within 100 to 1000 nM. As to `N#Cc1ccc(-c2cc(CC3CNCCO3)ccc2N2CCN(c3nccs3)CC2)cc1F` (centres unmarked) [Example 88, 3-fluoro-5′-[(morpholin-2-yl)methyl]-2′-[4-(1,3-thiazol-2-yl)piperazin-1-yl]-[1,1′-biphenyl]-4-carbonitrile], the 50% inhibitory concentration (IC50) lay in the range of 100 to 1000 nM. For `Cc1cc(NCC2CNCCO2)c(Cl)c(-c2ccc(C#N)c(F)c2)c1` (centres unmarked) [Example 89, 2′-chloro-3-fluoro-5′-methyl-3′-{[(morpholin-2-yl)methyl]amino}-[1,1′-biphenyl]-4-carbonitrile], the IC50 was > 1000 nM.

For the molecule `N#Cc1ccc(-c2cccc(CC3CNCCO3)c2-n2cccn2)cc1F` (centres unmarked) [Example 90, 2-fluoro-4-[3-(morpholin-2-ylmethyl)-2-pyrazol-1-yl-phenyl]benzonitrile], the IC50 was > 1000 nM.
